From patent US9175011B2, “Morpholino substituted urea or carbamate derivatives as MTOR inhibitors” (CELLZOME LIMITED, priority 2011, dated 2015)

Assays:
[1] = biological target: T1, mTOR (Homo sapiens, UniProt P42345); test: mTOR kinobeads assay (Jurkat cell lysate, dot blot detection); type: binding; conditions: read-out: Inhibition values (IC50) mTor
T1 construct: Jurkat cells were homogenized in a Potter S homogenizer in lysis buffer; endogenous in cells; host or cells: Jurkat, clone E6-1 (ATCC TIB-152) lysate
Method: (§1) The compounds of the present invention as described were tested in the mTOR kinobeads assay as described below. Briefly, test compounds (at various concentrations) and the affinity matrix (1:1 mixture of beads with immobilized phenylthiazole ligand 1 and beads with immobilized phenylmorpholin-chromen ligand; WO 2009/098021) were added to cell lysate aliquots and allowed to bind to the proteins in the lysate sample. After the incubation time the beads with captured proteins were separated from the lysate. Bound proteins were then eluted and the presence of mTOR, PI3K alpha (PI3Kα), PI3K beta (PI3Kb), PI3K gamma (PI3Kg), PI3K delta (PI3Kd) and DNA-dependent protein kinase (DNA-PK) was detected and quantified using a specific antibody in a dot blot procedure and the Odyssey infrared detection system. Dose response curves for individual kinases were generated and IC50 values calculated. Kinobeads assays for PI3 kinases (WO-A 2008/015013) and for kinase selectivity profiling (WO 2009/098021) have been previously described.
(§2) The affinity matrix (beads with immobilized phenylmorpholin-chromen ligand) was washed three times with 15 ml of 1×DP buffer containing 0.2% NP40 (IGEPAL® CA-630, Sigma, #13021) and then resuspended in 5.5 ml of 1×DP buffer containing 0.2% NP40 (10% beads slurry).
(§3) 5×DP buffer: 250 mM Tris-HCl pH 7.4, 25% Glycerol, 7.5 mM MgCl2, 750 mM NaCl, 5 mM Na3VO4, filter the 5×-lysis buffer through 0.22 μm filter and store in aliquots at −80° C. The 5×DP buffer is diluted to 1×DP buffer containing 1 mM DTT and 25 mM NaF.
(§4) Stock solutions of test compounds were prepared in DMSO. In a 96 well plate 30 μl solution of diluted test compounds at 5 mM in DMSO were prepared. Starting with this solution a 1:3 dilution series (9 steps) was prepared. For control experiments (no test compound) a buffer containing 2% DMSO was used. Compound PI-103 served as a positive control (Calbiochem catalogue number 528100).
(§5) Jurkat cells (ATCC catalogue number TIB-152 Jurkat, clone E6-1) were grown in 1 liter Spinner flasks (Integra Biosciences, #182101) in suspension in RPMI 1640 medium (Invitrogen, #21875-034) supplemented with 10% Fetal Bovine Serum (Invitrogen) at a density between 0.15×10^6 and 1.2×10^6 cells/ml. Cells were harvested by centrifugation, washed once with 1×PBS buffer (Invitrogen, #14190-094) and cell pellets were frozen in liquid nitrogen and subsequently stored at −80° C.
(§6) Jurkat cells were homogenized in a Potter S homogenizer in lysis buffer: 50 mM Tris-HCl, 0.8% NP40, 5% glycerol, 150 mM NaCl, 1.5 mM MgCl2, 25 mM NaF, 1 mM sodium vanadate, 1 mM DTT, pH 7.5. One complete EDTA-free tablet (protease inhibitor cocktail, Roche Diagnostics, 1873580) per 25 ml buffer was added. The material was dounced 10 times using a mechanized POTTER S, transferred to 50 ml falcon tubes, incubated for 30 minutes on ice and spun down for 10 min at 20,000 g at 4° C. (10,000 rpm in Sorvall SLA600, precooled). The supernatant was transferred to an ultracentrifuge (UZ)-polycarbonate tube (Beckmann, 355654) and spun for 1 hour at 100.000 g at 4° C. (33.500 rpm in Ti50.2, precooled). The supernatant was transferred again to a fresh 50 ml falcon tube, the protein concentration was determined by a Bradford assay (BioRad) and samples containing 50 mg of protein per aliquot were prepared. The samples were immediately used for experiments or frozen in liquid nitrogen and stored frozen at −80° C.
(§7) Jurkat cell lysate (approximately 50 mg protein per plate) was thawed in a water bath at room temperature and then kept on ice. To the thawed cell lysate 1×DP 0.8% NP40 buffer containing protease inhibitors (1 tablet for 25 ml buffer; EDTA-free protease inhibitor cocktail; Roche Diagnostics 1873580) was added in order to reach a final protein concentration of 5 mg/ml total protein. The diluted cell lysate was stored on ice. […]

[2] = biological target: T2, PI3K alpha (PI3Kα) (Homo sapiens, UniProt P42336); test: kinobeads assay, PI3K alpha; type: binding; conditions: Jurkat cell lysate, read-out: Inhibition values (IC50) PI3Ka
T2 construct: Jurkat cells were homogenized in a Potter S homogenizer in lysis buffer; endogenous in cells; host or cells: Jurkat, clone E6-1 (ATCC TIB-152) lysate
Method: as §1, §2, §3, §4, §5, §6, §7

[3] = biological target: T3, PI3K beta (PI3Kb) (Homo sapiens, UniProt P42338); test: kinobeads assay, PI3K beta; type: binding; conditions: Jurkat cell lysate, read-out: Inhibition values (IC50) PI3Kb
T3 construct: Jurkat cells were homogenized in a Potter S homogenizer in lysis buffer; endogenous in cells; host or cells: Jurkat, clone E6-1 (ATCC TIB-152) lysate
Method: as §1, §2, §3, §4, §5, §6, §7

[4] = biological target: T4, PI3K gamma (PI3Kg) (Homo sapiens, UniProt P48736); test: kinobeads assay, PI3K gamma; type: binding; conditions: Jurkat cell lysate, read-out: Inhibition values (IC50) PI3Kg
T4 construct: Jurkat cells were homogenized in a Potter S homogenizer in lysis buffer; endogenous in cells; host or cells: Jurkat, clone E6-1 (ATCC TIB-152) lysate
Method: as §1, §2, §3, §4, §5, §6, §7

[5] = biological target: T5, PI3K delta (PI3Kd) (Homo sapiens, UniProt O00329); test: kinobeads assay, PI3K delta; type: binding; conditions: Jurkat cell lysate, read-out: Inhibition values (IC50) PI3Kd
T5 construct: Jurkat cells were homogenized in a Potter S homogenizer in lysis buffer; endogenous in cells; host or cells: Jurkat, clone E6-1 (ATCC TIB-152) lysate
Method: as §1, §2, §3, §4, §5, §6, §7

[6] = biological target: T6, DNA-dependent protein kinase (DNA-PK) (Homo sapiens, UniProt P78527); test: kinobeads assay, DNA-PK; type: binding; conditions: Jurkat cell lysate, read-out: Inhibition values (IC50) DNA-PK
T6 construct: Jurkat cells were homogenized in a Potter S homogenizer in lysis buffer; endogenous in cells; host or cells: Jurkat, clone E6-1 (ATCC TIB-152) lysate
Method: as §1, §2, §3, §4, §5, §6, §7

[7] = system: S6RP serine-240/244 phosphorylation; test: In vitro phospho-S6 cellular assay (HEK293T/17); type: cell-based; conditions: Homo sapiens; HEK293T/17 cells, 2 hours, pS6RP Ser240/244; read-out: Inhibition values (IC50) pS6
Text: Activation of mTOR signaling results in phosphorylation of several downstream targets. In cells, mTOR exists in two different protein complexes. The mTOR Complex-1 (mTORC1) phosphorylates and activates S6 Kinase 1 (S6K1) and S6 Kinase 2 (S6K2) (also known as p70S6K) which then phosphorylate S6 Ribosomal Protein (S6RP) (also known as RPS6)3. S6RP is phosphorylated on serine 235, senile 236, serine 240 and serine 244 by both pS6K1 and pS6K2. The mTOR Complex-2 (mTORC2) phosphorylates AKT on serine 473 which activates the AKT signaling pathway.
The assay measures a test compound's inhibition of S6RP serine-240/244 phosphorylation and inhibition of Akt serine-473 phosphorylation in human embryonic kidney derived HEK293T/17 cells (ATCC CRL-11268).
The HEK293T/17 cell line is maintained in DMEM media (Invitrogen catalogue number 41965-039) supplemented with 10% FCS at 37° C. in a 5% CO2 humidified incubator. Cells are seeded in 96-well plates at 40,000 cells/well (pS6RP S240/244 assay) or 80,000 cells/well (pAkt 5473 assay) in 90 μl growth media (DMEM, 2% FCS). Plates are incubated for 1 hour in a humidified incubator to allow the cells to adhere. Cells are treated with 8 concentrations of test compounds or DMSO alone for controls (final DMSO concentration 0.1%) and incubated at 37° C. for 2 hours. Then 20 μl of 5× concentrated lysis buffer (750 mM NaCl, 100 mM Tris pH7.4, 5 mM ADTA, 5 mM EGTA, 5% Triton X-100) is added, plates are sealed and incubated for 15 minutes at 4° C. with gentle shaking After cell lysis, 25 μl cell lysate is transferred to a MesoScale plate coated with an antibody to pS6RP Ser240/244 (MesoScale Discovery K150DGD-3) or an antibody to pAkt Ser 473 (MesoScale Discovery K151DGD-3). Plates have been blocked before by incubation with 150 μl MesoScale Discovery Blocking Solution-A for 1 hour at room temperature followed by washing with 150 μl 1×Tris wash buffer per well. After the transfer of the cell lysate to the MSD plate, the pS6RP (or pAkt) protein is captured on the coated antibody by incubation at room temperature for 1 hour with gentle shaking. After the capture step the plate is washed three times with 150 μl of 1× Tris wash buffer per well. Then 25 μl detection antibody conjugated with a Sulfo-Tag is added and incubated for 1 hour at room temperature with gentle shaking. Subsequently the antibody solution is removed and the plate is washed 3 times with 150 μl 1×Tris wash buffer per well and 150 μl Read buffer is added. The plates are analysed on a MSD 2400 Plate Reader (MesoScale Discovery). Data analysis is performed using nonlinear regression for a sigmoidal dose-response with a variable slope.

T3 sequence (P42338 whole entry): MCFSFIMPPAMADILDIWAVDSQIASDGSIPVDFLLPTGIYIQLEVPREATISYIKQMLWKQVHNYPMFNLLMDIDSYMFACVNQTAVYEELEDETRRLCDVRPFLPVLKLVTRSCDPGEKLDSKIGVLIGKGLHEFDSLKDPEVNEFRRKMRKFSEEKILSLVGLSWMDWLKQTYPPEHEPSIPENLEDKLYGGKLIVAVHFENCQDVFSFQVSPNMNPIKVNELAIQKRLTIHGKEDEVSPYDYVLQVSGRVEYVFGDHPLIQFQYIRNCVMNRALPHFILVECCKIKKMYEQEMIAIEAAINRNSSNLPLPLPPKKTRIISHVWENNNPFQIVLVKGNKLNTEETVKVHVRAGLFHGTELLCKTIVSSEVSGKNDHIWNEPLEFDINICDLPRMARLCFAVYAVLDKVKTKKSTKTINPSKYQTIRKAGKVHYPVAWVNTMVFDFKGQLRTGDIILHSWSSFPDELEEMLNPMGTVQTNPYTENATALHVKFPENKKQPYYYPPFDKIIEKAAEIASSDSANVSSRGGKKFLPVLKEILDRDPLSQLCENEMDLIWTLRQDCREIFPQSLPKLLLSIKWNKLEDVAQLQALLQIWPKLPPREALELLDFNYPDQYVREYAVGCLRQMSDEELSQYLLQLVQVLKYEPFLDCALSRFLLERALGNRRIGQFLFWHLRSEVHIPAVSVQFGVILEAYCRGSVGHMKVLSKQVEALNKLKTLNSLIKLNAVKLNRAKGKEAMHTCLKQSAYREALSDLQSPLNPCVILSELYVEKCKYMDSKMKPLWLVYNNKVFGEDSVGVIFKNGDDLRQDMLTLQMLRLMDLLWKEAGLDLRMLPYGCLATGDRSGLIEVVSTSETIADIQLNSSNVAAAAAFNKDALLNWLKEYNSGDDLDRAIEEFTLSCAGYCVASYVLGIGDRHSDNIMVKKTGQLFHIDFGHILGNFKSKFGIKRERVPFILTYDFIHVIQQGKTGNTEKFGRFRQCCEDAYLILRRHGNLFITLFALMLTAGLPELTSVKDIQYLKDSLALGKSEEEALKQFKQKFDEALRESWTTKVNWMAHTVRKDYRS
T3 sequence (P27986 whole entry partner): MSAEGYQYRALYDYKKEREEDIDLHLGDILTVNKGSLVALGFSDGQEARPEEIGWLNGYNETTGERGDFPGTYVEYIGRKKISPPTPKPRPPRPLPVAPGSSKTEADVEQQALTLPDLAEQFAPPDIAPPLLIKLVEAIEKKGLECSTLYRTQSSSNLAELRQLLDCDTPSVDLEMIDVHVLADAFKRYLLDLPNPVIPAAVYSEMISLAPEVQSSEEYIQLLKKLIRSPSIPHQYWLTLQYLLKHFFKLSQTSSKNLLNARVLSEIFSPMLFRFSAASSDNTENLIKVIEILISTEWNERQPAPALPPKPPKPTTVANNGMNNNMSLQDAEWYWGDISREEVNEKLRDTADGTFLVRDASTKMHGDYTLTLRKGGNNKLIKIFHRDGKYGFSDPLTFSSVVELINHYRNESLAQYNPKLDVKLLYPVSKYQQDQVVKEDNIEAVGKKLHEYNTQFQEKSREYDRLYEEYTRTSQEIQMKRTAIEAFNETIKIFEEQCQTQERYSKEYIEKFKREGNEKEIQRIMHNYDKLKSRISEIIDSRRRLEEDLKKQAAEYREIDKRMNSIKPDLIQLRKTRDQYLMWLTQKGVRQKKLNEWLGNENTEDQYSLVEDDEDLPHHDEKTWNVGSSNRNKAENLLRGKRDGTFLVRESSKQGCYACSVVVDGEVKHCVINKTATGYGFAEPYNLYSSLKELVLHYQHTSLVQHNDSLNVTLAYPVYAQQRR
T2 sequence (P42336 whole entry): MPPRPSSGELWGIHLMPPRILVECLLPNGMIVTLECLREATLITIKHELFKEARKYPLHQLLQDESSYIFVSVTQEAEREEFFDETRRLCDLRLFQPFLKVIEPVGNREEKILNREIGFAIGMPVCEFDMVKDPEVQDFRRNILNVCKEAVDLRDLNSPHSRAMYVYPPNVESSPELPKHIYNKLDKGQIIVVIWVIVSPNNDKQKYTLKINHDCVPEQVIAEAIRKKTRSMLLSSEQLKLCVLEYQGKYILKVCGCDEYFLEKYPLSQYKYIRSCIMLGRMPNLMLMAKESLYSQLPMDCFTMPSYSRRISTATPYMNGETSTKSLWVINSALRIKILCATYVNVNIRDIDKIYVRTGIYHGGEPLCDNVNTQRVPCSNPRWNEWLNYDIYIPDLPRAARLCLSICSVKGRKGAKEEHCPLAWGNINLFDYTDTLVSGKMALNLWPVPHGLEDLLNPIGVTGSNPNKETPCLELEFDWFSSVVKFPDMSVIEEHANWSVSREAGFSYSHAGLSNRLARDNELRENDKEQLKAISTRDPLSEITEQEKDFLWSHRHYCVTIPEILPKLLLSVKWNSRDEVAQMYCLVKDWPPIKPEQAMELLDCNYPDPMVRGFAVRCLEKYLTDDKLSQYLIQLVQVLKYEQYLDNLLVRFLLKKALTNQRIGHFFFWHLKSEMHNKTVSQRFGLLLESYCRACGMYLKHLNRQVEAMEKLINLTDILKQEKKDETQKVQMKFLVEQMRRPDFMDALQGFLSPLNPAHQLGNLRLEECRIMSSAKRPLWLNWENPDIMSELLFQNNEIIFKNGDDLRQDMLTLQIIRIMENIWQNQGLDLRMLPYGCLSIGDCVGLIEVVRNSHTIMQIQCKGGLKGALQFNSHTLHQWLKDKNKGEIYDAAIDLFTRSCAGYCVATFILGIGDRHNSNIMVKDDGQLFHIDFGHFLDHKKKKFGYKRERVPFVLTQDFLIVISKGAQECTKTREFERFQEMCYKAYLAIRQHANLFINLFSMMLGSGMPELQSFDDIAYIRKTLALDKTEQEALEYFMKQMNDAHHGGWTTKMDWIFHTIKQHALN
T2 sequence (P27986 whole entry partner): as the sequence (P27986 whole entry partner) above
T4 sequence (P48736 whole entry): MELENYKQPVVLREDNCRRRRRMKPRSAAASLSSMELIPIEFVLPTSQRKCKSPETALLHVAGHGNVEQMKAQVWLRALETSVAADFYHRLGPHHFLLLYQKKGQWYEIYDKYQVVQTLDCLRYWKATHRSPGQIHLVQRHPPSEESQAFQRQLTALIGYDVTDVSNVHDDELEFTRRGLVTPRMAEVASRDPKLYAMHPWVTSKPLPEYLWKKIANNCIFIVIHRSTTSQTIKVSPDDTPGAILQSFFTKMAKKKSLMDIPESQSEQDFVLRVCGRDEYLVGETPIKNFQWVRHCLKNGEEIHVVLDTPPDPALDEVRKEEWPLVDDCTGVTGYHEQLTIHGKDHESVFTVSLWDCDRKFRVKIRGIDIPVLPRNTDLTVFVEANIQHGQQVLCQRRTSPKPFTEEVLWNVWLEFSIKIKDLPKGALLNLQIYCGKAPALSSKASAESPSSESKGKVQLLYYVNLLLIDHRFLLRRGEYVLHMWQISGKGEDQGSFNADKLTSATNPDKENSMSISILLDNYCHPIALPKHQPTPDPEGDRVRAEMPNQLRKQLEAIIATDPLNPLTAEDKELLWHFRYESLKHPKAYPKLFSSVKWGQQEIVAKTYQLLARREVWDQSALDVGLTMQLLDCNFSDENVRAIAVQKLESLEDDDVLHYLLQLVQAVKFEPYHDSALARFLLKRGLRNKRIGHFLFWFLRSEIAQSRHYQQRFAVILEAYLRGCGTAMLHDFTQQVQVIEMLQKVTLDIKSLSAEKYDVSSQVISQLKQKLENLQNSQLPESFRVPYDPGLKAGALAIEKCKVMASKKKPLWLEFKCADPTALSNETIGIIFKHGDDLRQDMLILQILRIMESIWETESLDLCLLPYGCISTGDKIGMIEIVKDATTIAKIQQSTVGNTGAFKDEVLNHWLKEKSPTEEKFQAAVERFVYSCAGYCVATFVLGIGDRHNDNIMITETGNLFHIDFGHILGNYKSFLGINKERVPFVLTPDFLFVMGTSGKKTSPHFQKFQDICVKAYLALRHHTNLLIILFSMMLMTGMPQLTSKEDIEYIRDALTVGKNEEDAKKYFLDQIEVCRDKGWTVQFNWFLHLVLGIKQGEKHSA
T5 sequence (O00329 whole entry): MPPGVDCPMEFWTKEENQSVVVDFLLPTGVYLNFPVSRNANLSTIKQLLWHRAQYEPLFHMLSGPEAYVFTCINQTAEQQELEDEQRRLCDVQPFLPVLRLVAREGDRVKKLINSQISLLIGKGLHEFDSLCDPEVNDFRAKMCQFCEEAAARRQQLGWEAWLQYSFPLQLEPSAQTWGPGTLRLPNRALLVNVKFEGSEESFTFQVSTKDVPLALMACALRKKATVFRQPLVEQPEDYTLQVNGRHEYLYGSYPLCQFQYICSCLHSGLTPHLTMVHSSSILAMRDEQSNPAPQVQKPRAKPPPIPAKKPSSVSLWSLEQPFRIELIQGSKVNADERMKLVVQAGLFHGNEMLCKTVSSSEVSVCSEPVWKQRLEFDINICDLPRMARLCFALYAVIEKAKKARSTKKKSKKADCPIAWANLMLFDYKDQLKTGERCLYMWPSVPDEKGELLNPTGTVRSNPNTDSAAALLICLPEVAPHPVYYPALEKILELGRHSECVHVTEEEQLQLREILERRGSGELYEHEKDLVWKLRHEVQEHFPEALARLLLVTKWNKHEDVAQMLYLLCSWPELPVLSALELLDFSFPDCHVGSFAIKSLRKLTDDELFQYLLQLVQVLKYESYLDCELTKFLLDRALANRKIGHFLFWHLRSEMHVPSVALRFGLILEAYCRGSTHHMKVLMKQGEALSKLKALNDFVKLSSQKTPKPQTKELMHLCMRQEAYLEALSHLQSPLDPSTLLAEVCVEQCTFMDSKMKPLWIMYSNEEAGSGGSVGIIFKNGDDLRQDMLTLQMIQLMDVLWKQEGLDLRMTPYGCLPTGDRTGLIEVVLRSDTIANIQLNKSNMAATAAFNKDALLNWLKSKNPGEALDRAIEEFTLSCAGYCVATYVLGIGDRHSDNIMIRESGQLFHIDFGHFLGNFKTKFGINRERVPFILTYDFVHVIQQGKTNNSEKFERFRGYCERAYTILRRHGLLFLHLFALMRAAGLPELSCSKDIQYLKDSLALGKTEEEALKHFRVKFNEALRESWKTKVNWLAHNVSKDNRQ
T5 sequence (P27986 whole entry partner): as the sequence (P27986 whole entry partner) above

IC50 [1] [µM]	IC50 [2] [µM]	IC50 [3] [µM]	IC50 [4] [µM]	IC50 [5] [µM]	IC50 [6] [µM]	IC50 [7] [µM]	SMILES
0.1 to 1	> 10	> 10	> 10	> 10	> 10	< 0.1	C[C@H]1COCCN1c1nc(-c2ccc(NC(=O)NC3CC3)cc2)nc(-c2ccccc2S(=O)(=O)N2CCCC2)n1 [Example 26, (S)-1-cyclopropyl-3-(4-(4-(3-methylmorpholino)-6-(2-(pyrrolidin-1-ylsulfonyl)phenyl)-1,3,5-triazin-2-yl)phenyl)urea]
0.1 to 1	> 10	> 10	> 10	> 10	> 10	< 0.1	C[C@H]1COCCN1c1nc(-c2ccc(NC(=O)NC3CCC3)cc2)nc(-c2ccccc2S(C)(=O)=O)n1 [Example 27, (S)-1-cyclobutyl-3-(4-(4-(3-methylmorpholino)-6-(2-(methylsulfonyl)phenyl)-1,3,5-triazin-2-yl)phenyl)urea]
0.1 to 1	> 10	> 10	> 10	> 10	> 10	< 0.1	C[C@H]1COCCN1c1nc(-c2ccc(NC(=O)NC3CC3(F)F)cc2)nc(-c2ccccc2S(C)(=O)=O)n1 (stereo partly drawn) [Example 29, 1-(2,2-difluorocyclopropyl)-3-(4-(4-((S)-3-methylmorpholino)-6-(2-(methylsulfonyl)phenyl)-1,3,5-triazin-2-yl)phenyl)urea]

The remaining lines, values behind:

SMILES	IC50 [1] [µM]	IC50 [2] [µM]	IC50 [3] [µM]	IC50 [4] [µM]	IC50 [5] [µM]	IC50 [6] [µM]	IC50 [7] [µM]
CCCNC(=O)Nc1ccc(-c2nc(-c3ccccc3S(C)(=O)=O)nc(N3CCOC[C@@H]3C)n2)cc1 [Example 18, (S)-1-(4-(4-(3-methylmorpholino)-6-(2-(methylsulfonyl)phenyl)-1,3,5-triazin-2-yl)phenyl)-3-propylurea]	0.1 to 1	> 10	> 10	> 10	> 10	> 10	< 0.1
CC(C)CNC(=O)Nc1ccc(-c2nc(-c3ccccc3S(C)(=O)=O)nc(N3CCOC[C@@H]3C)n2)cc1 [Example 19, (S)-1-isobutyl-3-(4-(4-(3-methylmorpholino)-6-(2-(methylsulfonyl)phenyl)-1,3,5-triazin-2-yl)phenyl)urea]	1 to 10	> 10	> 10	> 10	> 10	> 10	0.1 to 1
C[C@H]1COCCN1c1nc(-c2ccc(NC(=O)NC3CCCC3)cc2)nc(-c2ccccc2S(C)(=O)=O)n1 [Example 20, (S)-1-cyclopentyl-3-(4-(4-(3-methylmorpholino)-6-(2-(methylsulfonyl)phenyl)-1,3,5-triazin-2-yl)phenyl)urea]	0.1 to 1	1 to 10	1 to 10	> 10	> 10	1 to 10	< 0.1
CS(=O)(=O)c1ccccc1-c1nc(-c2ccc(NC(=O)NC3CC3)cc2)nc(N2CCCOCC2)n1 [Example 21, 1-cyclopropyl-3-(4-(4-(2-(methylsulfonyl)phenyl)-6-(1,4-oxazepan-4-yl)-1,3,5-triazin-2-yl)phenyl)urea]	0.1 to 1	> 10	> 10	> 10	> 10	> 10	0.1 to 1
CC1(C)COCCN1c1nc(-c2ccc(NC(=O)NC3CC3)cc2)nc(-c2ccccc2S(C)(=O)=O)n1 [Example 22, 1-cyclopropyl-3-(4-(4-(3,3-dimethylmorpholino)-6-(2-(methylsulfonyl)phenyl)-1,3,5-triazin-2-yl)phenyl)urea]	0.1 to 1	> 10	> 10	> 10	> 10	> 10	< 0.1
C[C@H]1COCCN1c1nc(-c2ccc(NC(=O)Nc3ccc(CO)cc3)cc2)nc(-c2ccccc2S(C)(=O)=O)n1 [Example 25, (S)-1-(4-(hydroxymethyl)phenyl)-3-(4-(4-(3-methylmorpholino)-6-(2-(methylsulfonyl)phenyl)-1,3,5-triazin-2-yl)phenyl)urea]	0.1 to 1	> 10	> 10	> 10	> 10	> 10	< 0.1
